{
  "source": "patent US8729097B2",
  "about": "“Quinoline compounds as inhibitors of angiogenesis, human methionine aminopeptidase, and SIRT1, and methods of treating disorders” (The Johns Hopkins University, priority 2008, dated 2014)",
  "key": {"hMetAP2": {"target": "T1, hMetAP2 (Homo sapiens, UniProt P50579)", "T1 construct": "made in house", "T1 sequence (P50579 whole entry)": "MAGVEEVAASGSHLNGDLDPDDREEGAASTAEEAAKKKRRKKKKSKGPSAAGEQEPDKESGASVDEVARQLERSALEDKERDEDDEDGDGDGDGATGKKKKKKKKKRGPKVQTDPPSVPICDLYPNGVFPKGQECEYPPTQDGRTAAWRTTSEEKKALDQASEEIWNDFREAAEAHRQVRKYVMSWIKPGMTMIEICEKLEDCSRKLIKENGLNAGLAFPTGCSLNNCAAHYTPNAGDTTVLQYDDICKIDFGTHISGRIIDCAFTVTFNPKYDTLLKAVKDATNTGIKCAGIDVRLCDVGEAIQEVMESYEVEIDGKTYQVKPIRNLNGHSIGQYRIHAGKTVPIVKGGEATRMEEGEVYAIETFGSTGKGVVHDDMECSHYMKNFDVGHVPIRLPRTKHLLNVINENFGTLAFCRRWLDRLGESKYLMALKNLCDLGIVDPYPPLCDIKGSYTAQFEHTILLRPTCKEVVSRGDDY", "experiment": "MetAP enzymatic assay, hMetAP2", "type": "biochemical", "conditions": "Co^2+ versus Mn^2+"}, "p53 and p21 mRNA": {"tested_on": "p53 and p21 mRNA", "experiment": "RT-PCR of p53 and p21 mRNA in HUVEC", "type": "cell-based, human", "conditions": "time-dependent", "procedure": "Total RNA from cells was isolated by Trizol reagent (Invitrogen) according to manufacturer's instruction. The RNA was then reverse transcribed using Superscript III (Invitrogen) and the standard PCR procedure was conducted using specific primer sets for p53 and p21 as following; 5′-[…]-3′ (forward) and 5′-[…]-3′ (reverse) for p53, 5′-[…]-3′ (forward) and 5′-[…]-3′ (reverse) for p21. RT-PCR analysis of GAPDH was used as an internal control for normalization."}, "[1]": {"tested_on": "breast cancer cells as well as human umbilical vein endothelial cells (HUVECs)", "experiment": "Cell proliferation assay, breast cancer cells and HUVECs", "type": "cell-based", "conditions": "Homo sapiens, HUVEC, read-out: IC50 of proliferation, all the cell types", "procedure": "Cell proliferation assay was performed using several different kinds of breast cancer cells as well as human umbilical vein endothelial cells (HUVECs). […].\nHCC1954 cells were grown in RPMI1640 containing 10% FBS. HUVEC were grown using the EGM-2 bullet kit (Cambrex) as per manufacturer's instructions. The cells were maintained in a humidified incubator adjusted to 5% CO2. For drug screening, 10 mM stock solutions of Johns Hopkins Drug Library were arrayed in 96-well plates and screened at a final concentration of 10 μM. The cell growth was determined using a [^3H]-thymidine incorporation assay. Cells (typically 5,000 cells/well) were seeded in 96-well plates containing 0.2 ml of growth media and allowed to adhere for 24 h. The cells were then treated with drugs for 24 h. Cells were pulsed with 1 μCi [^3H]-thymidine (MP Biomedicals, 6.7 Ci mmol^−1) for 8 h and harvested, upon trypsin treatment, onto glass fiber filters (Wallac, Turku, Finland), from which ^3H counts were determined using a Perkin Elmer MicroBeta plate reader."}, "[2]": {"tested_on": "p53 and Rb pathways in HUVECs", "experiment": "Western blot of p53, p21 and Rb in HUVEC", "type": "cell-based, human", "procedure": "Cells were lysed by adding 1 volume of 2× Laemmli buffer and were then boiled for 5 min. The samples were separated by SDS-PAGE and transferred to nitrocellulose membrane (Bio-Rad). Proteins were detected using primary antibodies for p53 (Santa Cruz), met-14-3-3γ (Novus), p21 (Santa Cruz), Rb (Santa Cruz), MetAP2 (Hu, X. et al (2006) Proc. Natl. Acad. Sci. U.S.A. 103, 18148-18153), SirT1 (Santa Cruz), acetyl-p53-K382 (Abeam), acetyl-tubulin (Sigma), histone-H3 (Santa Cruz), acetyl-H3 (Santa Cruz) and α-tubulin (TU-02, Santa Cruz) followed by the incubation with horseradish peroxidase (HRP)-conjugated anti-mouse or anti-rabbit antibodies (Santa Cruz) and enhanced chemiluminescence (ECL, Amersham)."}, "[3]": {"tested_on": "N-terminal methionine processing of 14-3-3γ by hMetAP2", "experiment": "N-terminal methionine processing of 14-3-3γ in HUVEC (Western blot)", "type": "cell-based, human", "procedure": "14-3-3γ is known as a substrate of eukaryotic MetAPs and the inhibition of either isotype of MetAPs was reported to increase the N-terminal methionyl form of the protein.\nCells were lysed by adding 1 volume of 2× Laemmli buffer and were then boiled for 5 min. The samples were separated by SDS-PAGE and transferred to nitrocellulose membrane (Bio-Rad)."}, "SirT2": {"target": "SirT2 (Homo sapiens, UniProt Q8IXJ6)", "sequence (Q8IXJ6 whole entry)": "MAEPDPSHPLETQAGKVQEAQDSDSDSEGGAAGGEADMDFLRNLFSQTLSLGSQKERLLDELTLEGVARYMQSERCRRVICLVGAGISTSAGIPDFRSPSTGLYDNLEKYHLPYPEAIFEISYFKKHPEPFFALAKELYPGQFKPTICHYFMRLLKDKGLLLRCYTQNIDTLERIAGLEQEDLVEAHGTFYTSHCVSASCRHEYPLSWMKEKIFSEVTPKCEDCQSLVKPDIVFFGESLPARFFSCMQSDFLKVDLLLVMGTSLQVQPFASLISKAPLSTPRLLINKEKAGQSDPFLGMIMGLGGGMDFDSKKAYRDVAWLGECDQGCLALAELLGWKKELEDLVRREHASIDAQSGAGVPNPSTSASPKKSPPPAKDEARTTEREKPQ", "experiment": "biochemical", "conditions": "SirT2 IC50, recombinant human sirtuin, fluorogenic substrate"}, "HFF": {"tested_on": "HFF", "experiment": "HFF proliferation (selectivity)", "type": "cell-based", "conditions": "Homo sapiens, HFF; Table 2"}, "SirT1": {"target": "T2, SirT1 (Homo sapiens, UniProt Q96EB6)", "T2 sequence (Q96EB6 1-747)": "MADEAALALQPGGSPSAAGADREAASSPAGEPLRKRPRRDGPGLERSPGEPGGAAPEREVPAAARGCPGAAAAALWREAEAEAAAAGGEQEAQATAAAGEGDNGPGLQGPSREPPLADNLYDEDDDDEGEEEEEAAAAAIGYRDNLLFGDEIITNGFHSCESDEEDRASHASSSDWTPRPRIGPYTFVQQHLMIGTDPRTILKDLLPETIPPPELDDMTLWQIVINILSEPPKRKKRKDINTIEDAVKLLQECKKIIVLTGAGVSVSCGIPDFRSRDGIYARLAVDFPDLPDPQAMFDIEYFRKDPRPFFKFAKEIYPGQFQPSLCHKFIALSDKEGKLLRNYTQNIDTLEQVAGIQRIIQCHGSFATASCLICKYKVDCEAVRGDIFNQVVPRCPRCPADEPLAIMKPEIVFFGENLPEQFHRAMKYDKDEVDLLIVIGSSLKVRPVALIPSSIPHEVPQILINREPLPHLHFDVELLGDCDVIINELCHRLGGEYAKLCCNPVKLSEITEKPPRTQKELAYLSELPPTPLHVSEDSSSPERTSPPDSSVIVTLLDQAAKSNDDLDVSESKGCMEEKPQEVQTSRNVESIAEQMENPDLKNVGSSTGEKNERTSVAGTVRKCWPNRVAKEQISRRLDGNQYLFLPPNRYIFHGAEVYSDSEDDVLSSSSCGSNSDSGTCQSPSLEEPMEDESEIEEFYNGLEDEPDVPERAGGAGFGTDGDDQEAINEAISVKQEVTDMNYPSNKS", "experiment": "biochemical", "conditions": "SirT1 IC50, recombinant human sirtuin, fluorogenic substrate"}},
  "note": "Where “and” joins values, the source holds several entries; their conditions need not be identical. Identical values can stand only once.",
  "data": [
    {"compound": "O=[N+]([O-])c1ccc(O)c2ncccc12", "note": "[Entry 1c, nitroxoline]", "values": [
      {"measurement": "potency on MetAP-2 with Co^2+ lower than with Mn^2+", "setting": "hMetAP2", "value": 25, "unit": "fold"},
      {"measurement": "p21 mRNA level", "setting": "p53 and p21 mRNA", "value": "increased"},
      {"measurement": "p53 mRNA level", "setting": "p53 and p21 mRNA", "value": "decreased"},
      {"measurement": "IC50", "setting": "[1]", "value": "2 to 5", "unit": "µM"},
      {"measurement": "p53 protein level", "setting": "[2]", "value": "upregulation"},
      {"measurement": "Rb hyperphosphorylation", "setting": "[2]; 8% SDS-PAGE", "value": "inhibited its hyperphosphorylation"},
      {"measurement": "total amount of Rb protein", "setting": "[2]; 12% SDS-PAGE", "value": "increased the total amount of Rb protein"},
      {"measurement": "p21 protein level on longer incubation", "setting": "[2]; longer incubation", "value": "upregulated"},
      {"measurement": "p53 protein level on prolonged exposure", "setting": "[2]; up to 72 h", "value": "sustained increase in p53 protein level"},
      {"measurement": "expression of p21", "setting": "[2]; within 24 h of treatment", "value": "no effect"},
      {"measurement": "N-terminal methioninylated 14-3-3γ level", "setting": "[3]; 24 h", "value": "dose-dependently increased"},
      {"measurement": "inhibition at 5 µM", "setting": "[3]; Homo sapiens, read-out: inhibition of the processing of 14-3-3γ compared with hMetAP2 siRNA", "value": "~80", "unit": "%"},
      {"measurement": "IC50", "setting": "SirT2", "value": "43 µM and 35 µM"},
      {"measurement": "IC50", "setting": "HFF", "value": 13.6, "unit": "µM"},
      {"measurement": "IC50", "setting": "SirT1", "value": "8 µM and 8.5 µM"}
    ]}
  ]
}
